Values of other authors in patent US20050008712A1, “Compositions incorporating high-caffeine green tea extract and related methods for promoting healthy body weight” (priority 2003, published 2005).

Conditions: rats

In the case of `O=C(O[C@@H]1Cc2c(O)cc(O)cc2O[C@@H]1c1cc(O)c(O)c(O)c1)c1cc(O)c(O)c(O)c1` [EGCG, (−)-epigallo-catechin-3-gallate], the “loss of body weight” value (after daily injections for a week) is given as 20%, the blood cholesterol (injected) is given as “significantly reduces” and the blood triglycerides (injected) is given as “significantly reduces”. The body weight (injected) was “significantly reduces” and the food intake (injected) was “significantly reduces”.
